Test results as given in patent publication US12667546B2, “Methods for manipulating cell state transitions in cancer” (AGENCY FOR SCIENCE, TECHNOLOGY AND RESEARCH, priority 2018, dated 2026).

Legend:
[1] = system: SUM159 PACR cells; assay: Mammosphere assay, SUM159 PACR cells; format: cell-based, human
Method: For mammosphere culture, cells were seeded onto 96-well ultralow-adherence plates at 700 cells/well in Mammocult medium (Stem Cell Technologies) supplemented with 4 μg/ml heparin, 0.5 μg/ml hydrocortisone and 1% methylcellulose. Spheres (>100 μm) were counted at 7-10 days later.

[2] = system: NAMEC8-Ras, BC2.2 and BC22.1 tumors; assay: Xenograft treatment with oral bexarotene; format: in vivo, NSG mice
Source text: Primary human breast cancer samples were obtained from the National Cancer Centre Singapore (NCCS) with patients' consent and under an IRB approved protocol (2015/2976). All animal experiments were approved by the Agency for Science Technology and Research Singapore-Biological Resource Centre IACUC (Protocol number 171286). Patient-derived breast tumor fragments (approximately 3×1×1 mm) were inserted bilaterally into the inguinal mammary fat pads of 6-8 week-old NSG female mice for initial establishment of tumors, and subsequently expanded in NSG mice once established. In this study, established tumor fragments of BC2.2 were implanted into cohorts of 6-8 week-old female NSG mice. For BC22.1, 1×10^6 cells were injected subcutaneously into both flanks of NSG mice.
All animal experiments were approved by the Agency for Science Technology and Research Singapore-Biological Resource Centre IACUC (Protocol number 140940). For pre-treated SUM159 and MCF7-Ras cells, 1×10^6 cells were suspended in 100 μl media containing 50% matrigel and injected subcutaneously into both flanks of female NSG mice. The NSG mice were checked for tumor by palpation once a week and tumors were harvested when they reached ˜15 mm in diameter. For treatment in NSG mice, 1×10^5 NAMEC8-Ras cells were suspended in 100 μl media containing 50% matrigel and injected subcutaneously into both flanks of NSG mice. The NSG mice were checked for tumor formation by palpation and when tumors were about 3 mm, mice were randomized into two groups: vehicle (5% DMSO in corn oil) and treatment (Bexarotene, 100 mg/kg/day oral dosing). Tumor size was measured every week using Vernier calipers and mice were sacrificed when tumors reached ˜15 mm or after ˜4 weeks of treatment. For patient-derived cells, 2×10^6 cells were injected subcutaneously per site in NSG mice. […]
The tumor sections were fixed overnight in 4% paraformaldehyde, immersed in 70% ethanol, and sent to the Advanced Molecular Pathlogy Lab, IMCB for paraffinization. […] The fluorescence image analysis and the fluorescence overlay image were obtained with the Axio Vision Rel. […]

C=C(c1ccc(C(=O)O)cc1)c1cc2c(cc1C)C(C)(C)CCC2(C)C [Bexarotene]
mammosphere-forming ability [1]: reduced mammosphere-forming ability | tumor growth rate and burden ([2]; 100 mg/kg/day oral dosing vs vehicle): significant reductions in tumor growth rate and burden | retinoid target gene expressions in tumors ([2]; STRA6, CRAPBP2, DHRS3, ANGPTL4, IP6K3, ACSL5): upregulated by at least two-fold | EMT markers in tumor sections (immunofluorescence) ([2]; tumors from bexarotene-treated mice): expression of E-cadherin, and the loss of fibronectin
